In PubChem BioAssay AID256 (DTP/NCI, 2004):
Values joined by “and” are separate entries in the source; they are usually repeats but may differ in a detail not shown here. Identical values can stand only once. Inconclusive results and toxic doses are left out. The calls were made as follows: active = survival T/C of 150% or more; inactive = T/C below 125% in these data.

System: CD2F1 mice, L1210 leukemia ip, survival T/C
Test: NCI In Vivo Anticancer Drug Screen. Data for tumor model L1210 Leukemia (intraperitoneal) in CD2F1 (CDF1) mice
Conditions: higher = longer survival
Method in brief: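 Each value reflects a quotient of treated over vehicle control outcomes in mice with a transplanted tumor.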

[1] = endpoint: mean survival time, dose: 12.5 mg/kg/injection, schedule: Q01DX009 (ip), vehicle: saline
[2] = endpoint: mean survival time, dose: 25.0 mg/kg/injection, schedule: Q01DX009 (ip), vehicle: saline
[3] = endpoint: mean survival time, dose: 50.0 mg/kg/injection, schedule: Q01DX009 (ip), vehicle: saline
[4] = endpoint: mean survival time, dose: 100.0 mg/kg/injection, schedule: Q01DX009 (ip), vehicle: saline
[5] = endpoint: mean survival time, dose: 200.0 mg/kg/injection, schedule: Q01DX009 (ip), vehicle: saline
[6] = endpoint: mean survival time, dose: 400.0 mg/kg/injection, schedule: Q01DX009 (ip), vehicle: saline
[7] = endpoint: mean survival time, dose: 100.0 mg/kg/injection, schedule: Q01DX009 (ip), vehicle: saline with Tween-80
[8] = endpoint: mean survival time, dose: 100.0 mg/kg/injection, schedule: Q04DX003 (ip), vehicle: saline with Tween-80
[9] = endpoint: mean survival time, dose: 200.0 mg/kg/injection, schedule: Q01DX009 (ip), vehicle: saline with Tween-80
[10] = endpoint: mean survival time, dose: 200.0 mg/kg/injection, schedule: Q04DX003 (ip), vehicle: saline with Tween-80
[11] = endpoint: mean survival time, dose: 400.0 mg/kg/injection, schedule: Q01DX009 (ip), vehicle: saline with Tween-80
[12] = endpoint: mean survival time, dose: 400.0 mg/kg/injection, schedule: Q04DX003 (ip), vehicle: saline with Tween-80
[13] = endpoint: mean survival time, dose: 50.0 mg/kg/injection, schedule: Q01DX009 (ip), vehicle: saline with Tween-80
[14] = endpoint: mean survival time, dose: 100.0 mg/kg/injection, schedule: Q01DX001 (ip), vehicle: saline with Tween-80
[15] = endpoint: mean survival time, dose: 200.0 mg/kg/injection, schedule: Q01DX001 (ip), vehicle: saline with Tween-80
[16] = endpoint: mean survival time, dose: 400.0 mg/kg/injection, schedule: Q01DX001 (ip), vehicle: saline with Tween-80
[17] = endpoint: mean survival time, dose: 75.0 mg/kg/injection, schedule: Q01DX001 (ip), vehicle: saline
[18] = endpoint: mean survival time, dose: 150.0 mg/kg/injection, schedule: Q01DX001 (ip), vehicle: saline

Measured: T/C

C[Si](C)(C)O/C=C1/CCOC1=O
inactive: [1] 97 % of control and 107 % of control | [2] 106 % of control and 108 % of control | [3] 103 % of control and 104 % of control | [4] 104 % of control and 106 % of control | [5] 105 % of control and 112 % of control | [6] 113 % of control and 112 % of control

Fc1c(F)c(F)[c]([Ge]([c]2c(F)c(F)c(F)c(F)c2F)([c]2c(F)c(F)c(F)c(F)c2F)[c]2c(F)c(F)c(F)c(F)c2F)c(F)c1F
inactive: [7] 97 % of control | [8] 86 % of control | [9] 92 % of control | [10] 91 % of control | [11] 91 % of control | [12] 93 % of control

CC1(C)OCC(COCc2ccccc2)O1 (stereo not given)
inactive: [4] 96 % of control | [5] 91 % of control | [6] 96 % of control

COC1=C(OC)C(=O)C(C/C=C(\C)CC/C=C(\C)CC/C=C(\C)CC/C=C(\C)CC/C=C(\C)CCC=C(C)C)=C(C)C1=O
inactive: endpoint: mean survival time, dose: 100.0 mg/kg/injection, schedule: Q01DX001 (ip), vehicle: saline 102 % of control | endpoint: mean survival time, dose: 200.0 mg/kg/injection, schedule: Q01DX001 (ip), vehicle: saline 103 % of control | endpoint: mean survival time, dose: 400.0 mg/kg/injection, schedule: Q01DX001 (ip), vehicle: saline 100 % of control

CN(C)c1ccc(/C=N/NC(=O)NN)cc1
inactive: endpoint: mean survival time, dose: 12.5 mg/kg/injection, schedule: Q01DX009 (ip), vehicle: saline with Tween-80 98 % of control | endpoint: mean survival time, dose: 12.5 mg/kg/injection, schedule: Q04DX003 (ip), vehicle: saline with Tween-80 98 % of control | endpoint: mean survival time, dose: 25.0 mg/kg/injection, schedule: Q01DX009 (ip), vehicle: saline with Tween-80 100 % of control | endpoint: mean survival time, dose: 25.0 mg/kg/injection, schedule: Q04DX003 (ip), vehicle: saline with Tween-80 98 % of control | [13] 98 % of control | endpoint: mean survival time, dose: 50.0 mg/kg/injection, schedule: Q04DX003 (ip), vehicle: saline with Tween-80 104 % of control

COc1cc(C)cc(O)c1C=O
inactive: [8] 100 % of control | [10] 100 % of control | [12] 100 % of control

Cc1cc(NC(=O)Nc2ccccc2C)no1
inactive: [14] 106 % of control | [15] 100 % of control | [16] 103 % of control

CC1(C2CCN(Cc3ccccc3)CC2)OCCO1
inactive: [17] 101 % of control | [18] 97 % of control

Cc1ccc(C(=O)CC(O)(C(F)(F)F)C(F)(F)F)cc1
inactive: endpoint: mean survival time, dose: 100.0 mg/kg/injection, schedule: Q01DX009 (ip), vehicle: other 106 % of control | endpoint: mean survival time, dose: 400.0 mg/kg/injection, schedule: Q01DX009 (ip), vehicle: other 112 % of control

CS(=O)(=O)OCCN(CCOS(C)(=O)=O)c1cccc([N+](=O)[O-])c1
inactive: endpoint: mean survival time, dose: 8.0 mg/kg/injection, schedule: Q01DX001 (ip), vehicle: saline 96 % of control | endpoint: mean survival time, dose: 10.0 mg/kg/injection, schedule: Q01DX010 (ip), vehicle: saline 113 % of control | endpoint: mean survival time, dose: 16.0 mg/kg/injection, schedule: Q01DX001 (ip), vehicle: saline 103 % of control | endpoint: mean survival time, dose: 32.0 mg/kg/injection, schedule: Q01DX001 (ip), vehicle: saline 110 % of control | endpoint: mean survival time, dose: 64.0 mg/kg/injection, schedule: Q01DX001 (ip), vehicle: saline 114 % of control and 108 % of control | endpoint: mean survival time, dose: 128.0 mg/kg/injection, schedule: Q01DX001 (ip), vehicle: saline 118 % of control | endpoint: mean survival time, dose: 256.0 mg/kg/injection, schedule: Q01DX001 (ip), vehicle: saline 119 % of control | endpoint: mean survival time, dose: 300.0 mg/kg/injection, schedule: Q01DX010 (ip), vehicle: saline 97 % of control

CCOC(=O)c1ncsc1NC(=O)NC
inactive: [17] 101 % of control | [18] 100 % of control

O=C(COCC(=O)N/N=C/c1ccc(Cl)c(Cl)c1)N/N=C/c1ccc(Cl)c(Cl)c1
inactive: [14] 94 % of control | [15] 94 % of control | [16] 96 % of control

O=C(O)c1sc(C(=O)O)c(-c2ccccc2)c1-c1ccccc1
inactive: endpoint: mean survival time, dose: 100.0 mg/kg/injection, schedule: Q01DX009 (ip), vehicle: saline sonified 92 % of control | endpoint: mean survival time, dose: 200.0 mg/kg/injection, schedule: Q01DX009 (ip), vehicle: saline sonified 90 % of control | endpoint: mean survival time, dose: 400.0 mg/kg/injection, schedule: Q01DX009 (ip), vehicle: saline sonified 103 % of control

Cc1ccc(S(=O)(=O)OC(c2ccc(Cl)cc2)C(F)(F)F)cc1 (stereo not given)
inactive: [14] 101 % of control | [7] 93 % of control | [15] 95 % of control | [9] 86 % of control | [16] 101 % of control | [11] 87 % of control

CN=C(N)N/N=C(\C)c1ccc2sc3ccc(/C(C)=N/NC(N)=NC)cc3c2c1
inactive: endpoint: median survival time, dose: 25.0 mg/kg/injection, schedule: Q01DX009 (ip), vehicle: saline with Tween-80 113 % of control and 124 % of control | endpoint: median survival time, dose: 50.0 mg/kg/injection, schedule: Q01DX009 (ip), vehicle: saline with Tween-80 112 % of control | endpoint: median survival time, dose: 100.0 mg/kg/injection, schedule: Q01DX009 (ip), vehicle: saline with Tween-80 117 % of control | endpoint: median survival time, dose: 200.0 mg/kg/injection, schedule: Q01DX009 (ip), vehicle: saline with Tween-80 119 % of control | endpoint: median survival time, dose: 400.0 mg/kg/injection, schedule: Q01DX009 (ip), vehicle: saline with Tween-80 119 % of control and 102 % of control

O.O.[Cl][Pt+2][Cl].[NH-]CC[NH-]
inactive: endpoint: median survival time, dose: 3.12 mg/kg/injection, schedule: Q04DX003 (ip), vehicle: distilled water + Tween-80 101 % of control | endpoint: median survival time, dose: 6.25 mg/kg/injection, schedule: Q04DX003 (ip), vehicle: distilled water + Tween-80 102 % of control | endpoint: median survival time, dose: 12.5 mg/kg/injection, schedule: Q04DX003 (ip), vehicle: distilled water + Tween-80 111 % of control | endpoint: median survival time, dose: 25.0 mg/kg/injection, schedule: Q04DX003 (ip), vehicle: distilled water + Tween-80 108 % of control | endpoint: median survival time, dose: 50.0 mg/kg/injection, schedule: Q04DX003 (ip), vehicle: distilled water + Tween-80 105 % of control

Nc1cccc(Oc2ccc([N+](=O)[O-])cc2)c1
inactive: endpoint: mean survival time, dose: 100.0 mg/kg/injection, schedule: Q01DX001 (ip), vehicle: Klucel (hydroxypropylcellulose) (HPC) 97 % of control | endpoint: mean survival time, dose: 200.0 mg/kg/injection, schedule: Q01DX001 (ip), vehicle: Klucel (hydroxypropylcellulose) (HPC) 97 % of control

O=S(=O)(O)SCCN1CCCCC1
inactive: [1] 104 % of control | endpoint: mean survival time, dose: 12.5 mg/kg/injection, schedule: Q04DX003 (ip), vehicle: saline sonified 102 % of control | [2] 106 % of control | endpoint: mean survival time, dose: 25.0 mg/kg/injection, schedule: Q04DX003 (ip), vehicle: saline sonified 101 % of control | [3] 104 % of control | endpoint: mean survival time, dose: 50.0 mg/kg/injection, schedule: Q04DX003 (ip), vehicle: saline sonified 91 % of control

CCCCC#CC1CCCC1 (tested in a mixture with another compound)
inactive: [13] 103 % of control | [7] 100 % of control | [9] 100 % of control

N#CCc1[nH]nc2ncnc(N)c12
inactive: endpoint: mean survival time, dose: 12.5 mg/kg/injection, schedule: Q01DX005 (ip), vehicle: water 100 % of control | endpoint: mean survival time, dose: 25.0 mg/kg/injection, schedule: Q01DX005 (ip), vehicle: water 100 % of control | endpoint: mean survival time, dose: 50.0 mg/kg/injection, schedule: Q01DX005 (ip), vehicle: water 105 % of control | endpoint: mean survival time, dose: 100.0 mg/kg/injection, schedule: Q01DX005 (ip), vehicle: water 105 % of control

O/N=C/c1cccc(CC(O)(C(F)(F)F)C(F)(F)F)n1
inactive: [8] 97 % of control | [10] 95 % of control | [12] 95 % of control

COC(=O)c1ccc(NC(=O)Cc2c(O)c3c(c(C)c2OC)COC3=O)cc1N
inactive: endpoint: mean survival time, dose: 100.0 mg/kg/injection, schedule: Q04DX002 (ip), vehicle: saline 100 % of control | endpoint: mean survival time, dose: 200.0 mg/kg/injection, schedule: Q04DX002 (ip), vehicle: saline 112 % of control | endpoint: median survival time, dose: 100.0 mg/kg/injection, schedule: Q04DX002 (ip), vehicle: saline 102 % of control | endpoint: median survival time, dose: 200.0 mg/kg/injection, schedule: Q04DX002 (ip), vehicle: saline 106 % of control

COC1=C(c2ccccc2)/C(=C/c2ccccc2)OC1=O
inactive: [14] 104 % of control | [15] 96 % of control | [16] 93 % of control

Cc1ccc(NC(=O)OCCSC(=O)COc2ccc(Cl)cc2Cl)cc1
inactive: [8] 98 % of control | [10] 98 % of control | [12] 93 % of control

CN1CC(=O)C(=N)C1=S
inactive: [14] 90 % of control | [15] 93 % of control | [16] 90 % of control

c1cc2c3c(c1)-c1nc4ccccc4cc1CN3CCC2
inactive: [8] 98 % of control | [10] 101 % of control | [12] 97 % of control
